Where two headings read alike, the source gives them in different places.
Legend:
Candida albicans (A 54) = experiment: MIC for yeast and yeast-like strains; assay type: cell-based; settings: 48 hours, 35° C., read-out: Minimal Inhibitory Concentration (MIC)
Procedure: (§1) The following strains were used (the number of strains is in brackets): Candida (13); Criptococcus (2); Saccharormyces (1); Torulopsis (1).
(§2) Yeast Nitrogen Base supplemented with 0.15% asparagine and 1.0% glucose (as carbon source) was the medium utilized in the assays.
(§3) This medium was buffered with 0.165 M 2-(N-morpholino) propane sulfonic acid (MOPS), a non-chelating buffer. […]
(§4) The inoculum was prepared from an overnight broth culture (a 48-hour culture only for Cryptococcus) in Sabouraud broth and appropriately diluted to yield a final suspension containing approximately 5.0×10^6 Colony Forming Units per ml (CFU/ml), when compared to the Mc Farland's standard control (BRAY W. E., Clinical Laboratory Methods, 5th Ed. C. V. MOSBY, St. Louis, Mo, 1957).
(§5) After further diluting (1:50), a […] volume of such fungal suspensions and an equal volume of the substance solutions were distributed into each well of a microtiter plate (96 wells, round bottom). Such a procedure eventually allowed for an "in vitro" antimycotic activity assay utilizing final fungal inocula of approximately 5.0×10^4 CFU/ml.

Candida albicans (Ca 2) = experiment: MIC for yeast and yeast-like strains; assay type: cell-based; settings: 48 hours, 35° C., read-out: Minimal Inhibitory Concentration (MIC)
Procedure: as §1, §2, §3, §4, §5

Candida krusei (ISS 1) = experiment: MIC for yeast and yeast-like strains; assay type: cell-based; settings: Pichia kudriavzevii; 48 hours, 35° C.; read-out: Minimal Inhibitory Concentration (MIC)
Procedure: as §1, §2, §3, §4, §5

[1] = test system: Cryptococcus neoformans (4711); experiment: MIC for yeast and yeast-like strains; assay type: cell-based; settings: 48 hours, 35° C., read-out: Minimal Inhibitory Concentration (MIC)
Procedure: as §1, §2, §3, §4, §5

[2] = test system: Torulopsis candida (D.S.); experiment: MIC for yeast and yeast-like strains; assay type: cell-based; settings: Suzukiozyma candida; 48 hours, 35° C.; read-out: Minimal Inhibitory Concentration (MIC)
Procedure: as §1, §2, §3, §4, §5

Candida albicans (ISS 1) = experiment: MIC for yeast and yeast-like strains; assay type: cell-based; settings: 48 hours, 35° C., read-out: Minimal Inhibitory Concentration (MIC)
Procedure: as §1, §2
(§6) This medium was buffered with 0.165 M 2-(N-morpholino) propane sulfonic acid (MOPS), a non-chelating buffer.
(§7) Antimicrob. Agents Cheroother. Aug. 34.8:1542-1545).
as §4, §5

Candida glabrata (ISS 1) = experiment: MIC for yeast and yeast-like strains; assay type: cell-based; settings: Nakaseomyces glabratus; 48 hours, 35° C.; read-out: Minimal Inhibitory Concentration (MIC)
Procedure: as §1, §2, §6, §7, §4, §5

[3] = test system: Candida guilliermondii (ISS 1); experiment: MIC for yeast and yeast-like strains; assay type: cell-based; settings: Meyerozyma guilliermondii; 48 hours, 35° C.; read-out: Minimal Inhibitory Concentration (MIC)
Procedure: as §1, §2, §6, §7, §4, §5

[4] = test system: Candida parapsilosis (ISS 1); experiment: MIC for yeast and yeast-like strains; assay type: cell-based; settings: Lodderomyces parapsilosis; 48 hours, 35° C.; read-out: Minimal Inhibitory Concentration (MIC)
Procedure: as §1, §2, §6, §7, §4, §5

[5] = test system: Candida tropicalis (ISS 1); experiment: MIC for yeast and yeast-like strains; assay type: cell-based; settings: 48 hours, 35° C., read-out: Minimal Inhibitory Concentration (MIC)
Procedure: as §1, §2, §6, §7, §4, §5

yeast-like fungi = experiment: MIC / MFC for yeast-like fungi, all strains; assay type: cell-based, Candida, Cryptococcus, Saccharomyces, Torulopsis; settings: read-out: Mean MIC values
Procedure: as §1, §2, §3, §4, §5
The minimal fungicidal concentration was evaluated by spot-transferring onto Petri dishes, containing Sabouraud agar, 0.01-ml volumes of all the samples showing no visible fungal growth.

[6] = test system: Aspergillus fumigatus (ATCC 28212); experiment: MIC for filamentous fungi; assay type: cell-based; settings: ATCC28212, read-out: Minimal Inhibitory Concentration (MIC)
Text: (§8) The following strains were used (the number of strains is in brackets): Aspergillus (5); Fusarium (1); Mucor (1); Penicillium (1).
(§9) The tested substances were: ST 712, ST 722, ST 982, ST 983, ST 1000, ST 1001, ST 1032, ST 1033, ST 1034, ST 1036, ST 1037, ST 1038, ST 1050, ST 1051, ST 1052, ST 1053. The assay medium was the same as the one used in the previous study. The conidia from 72-hour cultures in Sabouraud agar, collected by washing with Sabouraud medium and Tween 80 (one drop of Tween per 10 ml of medium), were utilized as inoculum (5.0×10^4 CFU/ml).
(§10) The assay was performed using the same procedure as described for yeast-like fungi.
(§11) Also the evaluation of MIC and MFC was as reported previously.

[7] = test system: Aspergillus niger (ATCC 16404); experiment: MIC for filamentous fungi; assay type: cell-based; settings: ATCC16404, read-out: Minimal Inhibitory Concentration (MIC)
Text: as §8, §9, §10, §11

Fusarium sp. (ISS 1) = experiment: MIC for filamentous fungi; assay type: cell-based; settings: read-out: Minimal Inhibitory Concentration (MIC)
Text: as §8, §9, §10, §11

Mucor mucedo (ATCC 7941) = experiment: MIC for filamentous fungi; assay type: cell-based; settings: ATCC7941, read-out: Minimal Inhibitory Concentration (MIC)
Text: as §8, §9, §10, §11

Penicillium sp. (1302) = experiment: MIC for filamentous fungi; assay type: cell-based; settings: read-out: Minimal Inhibitory Concentration (MIC)
Text: as §8, §9, §10, §11

filamentous fungi = experiment: MIC / MFC for filamentous fungi, all strains; assay type: cell-based, Aspergillus, Fusarium, Mucor, Penicillium; settings: read-out: Mean MIC values
Text: as §8, §9, §10, §11

Candida albicans (562) = experiment: MIC for yeast and yeast-like strains; assay type: cell-based; settings: 48 hours, 35° C., read-out: Minimal Inhibitory Concentration (MIC)
Procedure: as §1, §2, §3, §4, §5

[8] = test system: Candida tropicalis (5705); experiment: MIC for yeast and yeast-like strains; assay type: cell-based; settings: 48 hours, 35° C., read-out: Minimal Inhibitory Concentration (MIC)
Procedure: as §1, §2, §3, §4, §5

[9] = test system: Saccharomyces cerevisiae (ATCC 7752); experiment: MIC for yeast and yeast-like strains; assay type: cell-based; settings: ATCC7752, 48 hours, 35° C., read-out: Minimal Inhibitory Concentration (MIC)
Procedure: as §1, §2, §3, §4, §5

[10] = test system: Epidermophyton floccosum (IHEM 3495); experiment: MIC for dermatophytic fungi; assay type: cell-based; settings: 35° C., 96 hours, read-out: Minimal Inhibitory Concentration (MIC)
Procedure: (§12) The following strains were used: Trichophyton menthagrophytes ATCC 9533, Trichophyton rubrum IHEM 4274, Microsporum canis IHEM 3522, Epydermophyton floccosum IHEM 3495. The tested substances were: ST 722, ST 1033, ST 1037, ST 1050, ST 1051, ST 1052,. ST 1053.
(§13) The assay was performed following the same procedure described for the yeasts, by using 7-day fungi cultures grown at 30° C. in Potato Dextrose agar, and harvested with Sabouraud broth and Tween 80 (0.5%).
(§14) After washing with Yeast Nitrogen Base, supplemented with asparagine and glucose (as carbon source), the fungal suspension was fragmented using a tissue grinder until the largest clumps or aggregates were undetectable within the grinder. This fungal suspension was then appropriately diluted in YNB to yield a concentration of 2.0×10^5 infective particles/ml (small mycelium fragments, micro-and macroaleuriospores).
(§15) Volumes of 100 μl both of the fungal suspensions and substance solutions, two-fold serially diluted in assay medium, were distributed into each well of a microtiter plate (96 wells, round bottom), which was incubated at 35° C. for 96 hours.

[11] = test system: Microsporum canis (IHEM 3522); experiment: MIC for dermatophytic fungi; assay type: cell-based; settings: 35° C., 96 hours, read-out: Minimal Inhibitory Concentration (MIC)
Procedure: as §12, §13, §14, §15

[12] = test system: Trichophyton menthagrophites (ATCC 9533); experiment: MIC for dermatophytic fungi; assay type: cell-based; settings: ATCC9533, 35° C., 96 hours, read-out: Minimal Inhibitory Concentration (MIC)
Procedure: as §12, §13, §14, §15

[13] = test system: Trichophyton rubrum (IHEM 4274); experiment: MIC for dermatophytic fungi; assay type: cell-based; settings: 35° C., 96 hours, read-out: Minimal Inhibitory Concentration (MIC)
Procedure: as §12, §13, §14, §15

dermatophytic fungi = experiment: MIC / MFC for dermatophytic fungi, all strains; assay type: cell-based, Trichophyton, Microsporum, Epidermophyton; settings: versus susceptible strains
Procedure: as §12, §13, §14, §15

SMILES	MIC (Candida albicans (A 54)) [µg/mL]	MIC (Candida albicans (Ca 2)) [µg/mL]	MIC (Candida krusei (ISS 1)) [µg/mL]	MIC [1] [µg/mL]	MIC [2] [µg/mL]	MIC (yeast-like fungi; versus susceptible strains) [µg/mL]	MIC [6] [µg/mL]	MIC [7] [µg/mL]	MIC (Fusarium sp. (ISS 1)) [µg/mL]	MIC (Mucor mucedo (ATCC 7941)) [µg/mL]	MIC (Penicillium sp. (1302)) [µg/mL]	MIC (filamentous fungi; versus susceptible strains) [µg/mL]	MIC (Candida albicans (562)) [µg/mL]	MIC [8] [µg/mL]	MIC [9] [µg/mL]	MIC [10] [µg/mL]	MIC [11] [µg/mL]	MIC [12] [µg/mL]	MIC [13] [µg/mL]	MIC (dermatophytic fungi) [µg/mL]	also measured
CCCCCCCCCCCOC(=O)C[C@H](C[N+](C)(C)C)OC(=O)CCCCCCC [ST 1000]	6.25	1.56	1.56	1.56	6.25	4.21	3.12	3.12	3.12	6.25	3.12	3.76	–	–	–	–	–	–	–	–	MIC (Candida albicans (ISS 1)): 3.12 µg/mL; MIC (Candida glabrata (ISS 1)): 6.25 µg/mL; MIC [3]: 6.25 µg/mL; MIC [4]: 6.25 µg/mL; MIC [5]: 3.12 µg/mL
CCCCCCCCCCCCCOC(=O)C[C@H](C[N+](C)(C)C)OC(=O)CCCCCC [ST 1050]	–	3.12	3.12	–	–	4.37	6.25	6.25	6.25	12.5	3.12	6.85	6.25	6.25	3.12	50	12.5	12.5	6.25	20.3	–
CCCCCCCCCCCOC(=O)C[C@H](C[N+](C)(C)C)OC(=O)CCCCCCCCCC [ST 982]	> 100	> 100	–	> 100	> 100	–	> 100	> 100	> 100	> 100	> 100	–	–	> 100	–	–	–	–	–	–	MIC (yeast-like fungi): > 100 µg/mL; MIC (filamentous fungi): > 100 µg/mL
CCCCCCCCCCCCCOC(=O)C[C@H](C[N+](C)(C)C)OC(=O)CCCCC [ST 1052]	–	1.56	3.12	–	–	2.8	3.12	3.12	6.25	6.25	3.12	4.37	3.12	3.12	3.12	25	6.25	12.5	6.25	12.5	–
CCCCCCCCCCCCCOC(=O)C[C@H](C[N+](C)(C)C)OC(=O)CCCCCCC [ST 1053]	–	3.12	3.12	–	–	5.62	6.25	3.12	6.25	12.5	3.12	6.24	12.5	6.25	3.12	50	6.25	6.25	6.25	14.1	–
CCCCCCCCCCCCCCCC(=O)O[C@H](CC(=O)OCCCCCCCCCCC)C[N+](C)(C)C [ST 983]	> 100	> 100	–	> 100	> 100	> 100	> 100	> 100	> 100	> 100	> 100	> 100	–	> 100	–	–	–	–	–	–	–
CCCCCCCCCCCCCOC(=O)C[C@H](C[N+](C)(C)C)OC(=O)C(C)CCCC (stereo partly shown) [ST 1051]	–	1.56	3.12	–	–	2.8	3.12	6.25	6.25	6.25	3.12	6.87	3.12	3.12	3.12	25	12.5	12.5	6.25	14.1	–

Source: patent US5525627A, “Esters of acyl carnitines with long-chain aliphatic alcohols and pharmaceutical compositions containing same having antimycotic activity” (Sigma-Tau Industrie Farmaceutiche Riunite S.p.A., priority 1992, dated 1996)
